Reference: patent US20110318277A1, “TACROLIMUS COMPOSITIONS FOR AEROSOL ADMINISTRATION” (APT Pharmaceuticals, Inc. University of Maryland, Baltimore, priority 2010, published 2011)

Experiments:
[1] = Chemical stability of tacrolimus in ethanol as a function of concentration (HPLC); type: physicochemical; conditions: 55 °C, 26 days
Method: The chemical stability of tacrolimus in ethanol at different concentrations ranging from 100 to 400 mg/ml when stored at 55° C. was investigated.
Samples were analyzed using reverse phase HPLC with an acetonitrile-water gradient and UV detection. Samples were prepared in a non-aqueous medium, i.e., acetonitrile, to limit the interconversion of tautomers and to promote stability. Column temperature was set at 60° C. to further promote equilibrium between the cis-trans isomers. The gradient was set at 5% acetronitrile with a run time of 20 minutes. Acetic acid (0.002%) was added to mobile phase A (water). A solution of tacrolimus in 1:1 acetonitrile-water was incubated at 55° C. for 45 minutes to obtain an equilibrium mixture of the 3 tautomers so that retention times of each tautomer could be obtained.

[2] = Chemical stability of tacrolimus in ethanol as a function of temperature; type: physicochemical; conditions: 200 mg/ml in ethanol, around day 30
Method: The degradant levels contained in solutions of tacrolimus dissolved in ethanol at a fixed concentration of 200 mg/ml were determined over time as a function of temperature. Samples were stored at the following temperatures: 35° C., 45° C., and 55° C.

[3] = Aerosol exposure study of tacrolimus in rats, blood and lung pharmacokinetics; type: in vivo, male Sprague-dawley rats; conditions: rat; for AUClast / Tmax: lung; for Cmax: 30 min aerosol exposure
Method: A total of 54 male Sprague-dawley rats of approximately 250 g body weight were exposed to aerosols of tacrolimus (in a propylene-glycol:ethanol mixture) generated by jet-nebulizer for 30 minutes. […] Estimated deposited doses for the 30 minute exposure (assuming 10% deposition efficiency) were 0.072 and 0.256 mg/kg for the “low” and “high” dose groups. Lung and blood samples were obtained for groups of animals (n=3/time point).

[4] = Particle size of jet-nebulized tacrolimus aerosol; type: physicochemical; conditions: jet-nebulizer
[5] = Solubility of tacrolimus in ethanol and hydrofluoroalkanes; type: physicochemical
[6] = Aerosol exposure study of tacrolimus in rats, blood and lung pharmacokinetics; type: in vivo, male Sprague-dawley rats; conditions: rat
calcineurin = conditions: as a calcineurin inhibitor; Kino et al. 1987; cited from earlier work
[7] = male, Sprague-Dawley, inhaled or intranasal, blood, High Inhalation 0.256 mg/kg
[8] = male, Sprague-Dawley, inhaled or intranasal, blood, Low Inhalation 0.072 mg/kg
[9] = male, Sprague-Dawley, 0.4 mg/kg, blood, IV Bolus 0.400 mg/kg
[10] = male, Sprague-Dawley, 0.4 mg/kg, lung, IV Bolus 0.400 mg/kg

With `C=CC[C@@H]1/C=C(\C)C[C@H](C)C[C@H](OC)[C@H]2O[C@@](O)(C(=O)C(=O)N3CCCC[C@H]3C(=O)O[C@H](/C(C)=C/[C@@H]3CC[C@@H](O)[C@H](OC)C3)[C@H](C)[C@@H](O)CC1=O)[C@H](C)C[C@@H]2OC` [tacrolimus, 17-allyl-1,14-dihydroxy-12-[2-(4-hydroxy-3-methoxycyclohexyl)-1-methylvinyl]-23,25-dimethyoxy-13,19,21,27-tetramethyl-11,28-dioxa-4-azatricyclo-[22.3.1.0^4,9]octacos-18-ene-2,3,10,16-tetraone] the degradation of tacrolimus ([1]; 100 mg/ml in ethanol) was “approximately 7%”, the degradation of tacrolimus ([1]; 400 mg/ml in ethanol) was “less than 1%” and the impurity level ([2]; stored at 35 °C) was “about 3%”. For the same molecule, the impurity level ([2]; stored at 55 °C) was “about 11%”, the AUClast ([3]; High Inhalation 0.256 mg/kg) was 22750 ng·h/g and the AUClast ([3]; Low Inhalation 0.072 mg/kg) was 19722 ng·h/g. It also gave a Cmax [3, 7] of 149 ng/mL, an AUC(0-t) [3, 7] of 194 ng·h/mL and a Cmax [3, 8] of 40 ng/mL. For the same molecule, the AUC(0-t) [3, 8] was 121 ng·h/mL, the half-life [3, 8] was 179 min and the Tmax ([3]; male, Sprague-Dawley, inhaled or intranasal, High Inhalation 0.256 mg/kg) was 4.98 min. For the same molecule, the Tmax ([3]; male, Sprague-Dawley, inhaled or intranasal, Low Inhalation 0.072 mg/kg) was 4.98 min, the “MMAD (GSD)” value ([4]; 50 mg/ml solution in propylene-glycol:ethanol mixture) was 2.53 (1.71) μm and the “MMAD (GSD)” value ([4]; 150 mg/ml solution in propylene-glycol:ethanol mixture) was 2.56 (1.73) μm. The solubility in ethanol ([5]; ethanol) was “readily soluble”, the solubility in hydrofluoroalkanes ([5]; hydrofluoroalkanes) was “essentially insoluble” and the AUClast ([6]; lung, IV Bolus 0.400 mg/kg) was 334095 ng·h/g. It also gave an AUC(0-t) [6, 9] of 179 ng·h/mL, a Cmax [6, 9] of 78.2 ng/mL and a Tmax [6, 9] of 4.98 min. For the same molecule, the half-life [6, 9] was 114 min, the Cmax [6, 10] was 19100 ng/g and the Tmax [6, 10] was 4.98 min. For the same molecule, the half-life [6, 10] was 1470 min, the Tmax [6, 7] was 4.98 min and the half-life [6, 7] was 104 min. For the same molecule, the Tmax [6, 8] was 4.98 min, the Cmax ([6]; male, Sprague-Dawley, inhaled or intranasal, lung, High Inhalation 0.256 mg/kg, 30 min aerosol exposure) was 18100 ng/g and the half-life ([6]; male, Sprague-Dawley, inhaled or intranasal, lung, High Inhalation 0.256 mg/kg) was 1400 min. The Cmax ([6]; male, Sprague-Dawley, inhaled or intranasal, lung, Low Inhalation 0.072 mg/kg, 30 min aerosol exposure) was 9960 ng/g, the half-life ([6]; male, Sprague-Dawley, inhaled or intranasal, lung, Low Inhalation 0.072 mg/kg) was 548 min and the “potency relative to cyclosporine” value (calcineurin) was “up to one hundred times more potent”.
